Source: US20260265202A1, “N-(N-AMINOALKYL)[…] SERIES OF CHLORIDE-SENSITIVE FLUOROPHORES AND METHODS OF USE THEREOF” (The General Hospital Corporation, priority 2022, published 2026)

Tests used:
[1] = Toxicity of probe (stated key feature)
[2] = Spectrophotometry and two-photon excitation scans; type: physicochemical
Procedure: Spectrophotometry: Absorption readings were obtained using a Nanodrop One system (Thermo Scientific), while excitation and emission scans were obtained using a Spectramax M2 dual grating system (Molecular Devices). Intensity scans relative to excitation wavelength obtained on either of our custom two-photon excitation (2PE) rigs were analyzed with ImageJ and plotted using Matlab (v2022b).

| SMILES | toxicity [1] | fluorescence emission maximum ([2]; excitation at 360 nm) | excitation wavelength using 2PE [2] [nm] |
| --- | --- | --- | --- |
| NCCCC[n+]1cc2ccccc2c2ccccc21 [ABP, N-(4-aminobutyl)phenantridinium] | absence of toxicity | approximately 420 nm | – |
| O=S(=O)(O)CCCC[n+]1ccc2ccccc2c1 [NSBQ, N-4(sulfobutyl)isoquinolinium, reference compound] | – | – | 710 |
